Converted amounts (≈) assume the structure as drawn. Read-outs that look alike come from different tables or passages of the source. Values belong to the compound of their own block, whether it stands above or below them.
Experiments:
[1] = molecular target: T1, MRP2 (MDCK-MRP2 cells) (Homo sapiens, UniProt Q92887); assay: [3H]-LPV uptake in MDCK-MRP2 cells; assay type: cell-based; design: A. Schinkel and P. Borst (Netherlands Cancer Institute); host or cells: MDCKII (MDCKII-MRP2), retrovirally transfected; settings: for [3H]-LPV uptake, fold enhancement in presence of inhibitor: DPBS pH 7.4, 37 °C
T1 sequence (Q92887 whole entry): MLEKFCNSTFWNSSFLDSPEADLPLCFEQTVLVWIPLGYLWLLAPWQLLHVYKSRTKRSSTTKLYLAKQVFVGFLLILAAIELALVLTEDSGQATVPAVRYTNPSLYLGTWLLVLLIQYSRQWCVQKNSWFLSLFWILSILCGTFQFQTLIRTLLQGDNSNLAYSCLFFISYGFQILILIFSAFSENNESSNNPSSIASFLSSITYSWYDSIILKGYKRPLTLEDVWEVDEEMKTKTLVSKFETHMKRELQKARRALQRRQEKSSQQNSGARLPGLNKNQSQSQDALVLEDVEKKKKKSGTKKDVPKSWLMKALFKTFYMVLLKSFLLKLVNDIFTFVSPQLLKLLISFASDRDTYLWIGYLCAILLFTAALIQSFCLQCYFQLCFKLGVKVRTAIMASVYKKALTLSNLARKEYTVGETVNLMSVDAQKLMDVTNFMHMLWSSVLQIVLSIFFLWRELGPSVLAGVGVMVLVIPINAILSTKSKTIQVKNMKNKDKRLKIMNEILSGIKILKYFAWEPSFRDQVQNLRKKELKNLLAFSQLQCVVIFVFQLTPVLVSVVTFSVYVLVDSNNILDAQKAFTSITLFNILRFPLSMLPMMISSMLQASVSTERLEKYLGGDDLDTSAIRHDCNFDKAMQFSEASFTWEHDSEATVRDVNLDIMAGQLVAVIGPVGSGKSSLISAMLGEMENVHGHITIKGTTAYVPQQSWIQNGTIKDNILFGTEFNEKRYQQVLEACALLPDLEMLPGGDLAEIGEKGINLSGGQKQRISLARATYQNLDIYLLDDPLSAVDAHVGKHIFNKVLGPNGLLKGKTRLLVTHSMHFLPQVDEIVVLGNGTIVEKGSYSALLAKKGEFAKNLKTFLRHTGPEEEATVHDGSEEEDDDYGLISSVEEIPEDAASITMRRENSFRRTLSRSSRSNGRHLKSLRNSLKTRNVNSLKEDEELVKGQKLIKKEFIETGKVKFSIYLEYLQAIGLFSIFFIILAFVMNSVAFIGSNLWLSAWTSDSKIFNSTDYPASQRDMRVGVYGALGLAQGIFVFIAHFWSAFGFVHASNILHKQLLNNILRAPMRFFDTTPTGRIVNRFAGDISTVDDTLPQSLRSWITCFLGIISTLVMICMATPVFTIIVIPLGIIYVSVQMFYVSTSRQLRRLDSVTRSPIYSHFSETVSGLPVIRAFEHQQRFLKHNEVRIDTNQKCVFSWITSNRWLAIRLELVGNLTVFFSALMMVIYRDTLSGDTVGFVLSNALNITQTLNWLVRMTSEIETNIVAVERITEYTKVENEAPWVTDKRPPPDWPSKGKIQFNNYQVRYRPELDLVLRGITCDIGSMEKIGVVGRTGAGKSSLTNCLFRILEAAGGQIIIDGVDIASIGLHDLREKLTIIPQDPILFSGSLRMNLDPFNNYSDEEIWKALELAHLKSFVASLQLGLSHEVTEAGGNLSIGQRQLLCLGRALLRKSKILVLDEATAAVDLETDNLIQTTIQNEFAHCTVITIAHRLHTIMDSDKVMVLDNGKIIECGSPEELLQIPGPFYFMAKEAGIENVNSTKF
Experimental: (§1) Confluent cells were then trypsinized and plated at a density of 3 × 10^6 cells in 12 well culture plates. Medium was replaced every alternate day until cells reached confluency (6–7 days). Cellular uptake studies were performed on confluent cell monolayers according to previously published protocol from our laboratory. Briefly, medium was removed and cell monolayer was washed with 2 mL of DPBS (130 mM NaCl, 0.03 mM KCl, 7.5 mM Na2HPO4, 1.5 mM KH2PO4, 1 mM CaCl2, 0.5 mM MgSO4, and 5 mM glucose, pH 7.4) three times at 37 °C (each wash of 10 min). […] Following incubation, radioactive solution was quickly removed and plates were washed with ice-cold stop solution (210 mM KCl, 2 mM HEPES, pH of 7.4) to arrest the uptake process. One mL of lysis buffer (0.1% Triton-X solution in 0.3% NaOH) was added to each well and plates were stored overnight at RT. Later, 500 µL solutions were transferred to scintillation vials containing 3 mL of scintillation cocktail. The radioactivity associated with cells was analyzed with a scintillation counter (Beckman Instruments Inc., Model LS-6500; Fullerton, CA, USA). Uptake rate was normalized to protein count which was quantified with a BioRad protein estimation kit.
(§2) Prior to initiation of uptake studies, cells were treated with efflux inhibitors for a period of 15 min. Uptake study was then initiated according to a procedure described in section 2.2.5.

[2] = Solubility study in distilled deionized water (DDW); settings: for solubility at 24 h: distilled deionized water, water, thermodynamic from solid; for Solubility, fold higher relative to LPV: DDW; for Solubility in DDW: saturated solution, room temperature, 24 h
Experimental: Aqueous solubility study of prodrugs was performed according to the published protocol from our laboratory. Saturated solution of each prodrug was prepared in DDW in siliconized tubes. Tubes were placed in shaking water bath at room temperature (RT) for 24 h. Tubes were centrifuged at 10,000 rpm for 10 min to separate undissolved prodrugs. The supernatant was separated, filtered through 0.45 µm membrane (Nalgene syringe filter) and analyzed with HPLC after appropriate dilutions.
(§3) Aqueous solubility and buffer stability samples were measured with reversed phase HPLC technique. Waters 515 pump (Waters, Milford, MA, USA) connected to a UV detector (Absorbance Detector Model UV-C, RAININ, Dynamax, Palo Alto, CA, USA) was employed. A C(18) Kinetex column (100 × 4.6 mm, 2.6 µ; Phenomenex, Torrance, CA, USA) was pumped with mobile phase (1:1) acetonitrile and water (0.1% trifluoroacetic acid) at a flow rate of 0.3 mL/min. Analytes were detected with UV detection at a wavelength of 210 nm.

[3] = molecular target: T2, P-gp (MDCK-MDR1 cells) (Homo sapiens, UniProt P08183); settings: MDCK-MDR1, DPBS pH 7.4, 37 °C
T2 sequence (P08183 whole entry): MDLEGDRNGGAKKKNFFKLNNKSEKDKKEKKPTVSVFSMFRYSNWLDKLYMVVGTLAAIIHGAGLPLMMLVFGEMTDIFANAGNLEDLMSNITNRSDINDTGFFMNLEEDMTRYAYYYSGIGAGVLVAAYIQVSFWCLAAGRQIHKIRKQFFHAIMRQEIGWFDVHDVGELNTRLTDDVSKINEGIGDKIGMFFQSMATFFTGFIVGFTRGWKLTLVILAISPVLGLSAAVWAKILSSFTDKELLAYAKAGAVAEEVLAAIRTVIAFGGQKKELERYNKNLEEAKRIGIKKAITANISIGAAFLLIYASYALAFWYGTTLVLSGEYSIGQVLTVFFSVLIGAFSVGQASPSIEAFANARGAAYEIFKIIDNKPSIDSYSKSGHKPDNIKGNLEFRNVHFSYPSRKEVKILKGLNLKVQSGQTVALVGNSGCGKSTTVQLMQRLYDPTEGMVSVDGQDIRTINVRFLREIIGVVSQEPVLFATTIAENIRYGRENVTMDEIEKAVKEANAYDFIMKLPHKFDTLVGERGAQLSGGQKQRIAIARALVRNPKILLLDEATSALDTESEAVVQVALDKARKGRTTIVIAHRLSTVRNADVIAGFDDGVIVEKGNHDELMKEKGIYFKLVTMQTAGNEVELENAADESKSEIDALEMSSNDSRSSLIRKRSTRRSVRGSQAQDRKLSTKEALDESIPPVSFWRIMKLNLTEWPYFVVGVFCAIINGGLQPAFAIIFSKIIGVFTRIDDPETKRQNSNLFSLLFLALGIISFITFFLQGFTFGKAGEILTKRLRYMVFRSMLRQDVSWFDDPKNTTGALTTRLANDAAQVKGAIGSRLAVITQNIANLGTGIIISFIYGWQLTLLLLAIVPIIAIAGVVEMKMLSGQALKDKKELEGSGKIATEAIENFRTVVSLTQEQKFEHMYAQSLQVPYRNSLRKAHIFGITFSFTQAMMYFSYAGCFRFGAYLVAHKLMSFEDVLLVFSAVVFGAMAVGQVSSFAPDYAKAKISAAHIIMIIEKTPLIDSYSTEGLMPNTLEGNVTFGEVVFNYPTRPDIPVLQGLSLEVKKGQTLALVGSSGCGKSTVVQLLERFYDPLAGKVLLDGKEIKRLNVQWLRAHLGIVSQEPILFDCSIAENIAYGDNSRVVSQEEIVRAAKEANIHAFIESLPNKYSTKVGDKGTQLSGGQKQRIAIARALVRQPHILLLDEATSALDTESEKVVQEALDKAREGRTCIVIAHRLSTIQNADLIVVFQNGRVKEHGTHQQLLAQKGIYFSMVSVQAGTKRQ
Experimental: as §1, §2

[4] = system: MDCK-WT cells; assay: Cytotoxicity, MTS assay; assay type: cell-based; settings: 4 h incubation; for Reduction in absorbance (positive controls): medium containing 10% DMSO or 0.1% Triton-X
Experimental: Cytotoxicity of prodrugs was determined in MDCK-WT cells with MTS assay based cytotoxicity kit. Briefly, cells were grown overnight in 96 well plates at a density of 20,000 cells per well prior to drug and prodrug addition. […] Cells were then incubated for 4 h at 37 °C. Following incubation, 20 μL of MTS stock solution was added to each well and incubated for 2 h at 37 °C. […] The quantity of formazan product as measured by absorbance is directly proportional to the number of viable cells in test samples.

[5] = Buffer stability (chemical hydrolysis) in DPBS; settings: for Degradation half life: DPBS; for half-life at 50 µM: DPBS buffer
Experimental: Chemical hydrolysis study of prodrugs was carried out according to the previously published protocols from our laboratory. Degradation rate constant and half-life (t1/2) of prodrugs were determined at various pH. […] Microcentrifuge tubes were placed in shaking water bath (60 rpm) at 37 °C. Samples (100 µL) were withdrawn at predetermined time points and stored at −80° C until further analysis. Prodrug concentrations remaining were plotted versus time in order to calculate degradation rate constants.
as §3

[6] = system: CYP3A4 (rat liver microsomes); assay: Rat liver microsomal stability; settings: for Half life in liver microsomes, fold higher compared to LPV: time dependent study
Experimental: (§4) One mL of microsomal solution was generated by adding microsomal protein (0.3 mg/mL), magnesium chloride (5 mM), glucose 6-phosphate (5 mM), b-NADP1 (1 mM), and glucose 6-phosphate dehydrogenase (1 U/mL) in phosphate buffer (100 mM, pH 7.4). […] The metabolic reaction was initiated by adding the NADPH generating system. NADPH generating system was freshly prepared by adding G-6-P, G-6-P DH and NADP in DDW. At predetermined time points, metabolic reaction was arrested by adding equal volumes of ice-cold acetonitrile to the sample. Samples were stored at −80 °C until further analysis by LCMS/MS technique.
(§5) This study was performed according to the previously published protocols from our laboratory. At predetermined time points, about 100 μL of samples were withdrawn and equal volume of acetonitrile was added to stop the degradation process. Degradation study was conducted for a period of 2 h. Samples were stored at −80 °C until further analysis.
(§6) Enzymatic degradation was arrested by adding equal amount of acetonitrile and samples were stored in −80 °C until further analysis.
(§7) Rat liver microsomes were employed at the concentration of 0.3 mg/mL. […] Liver microsomal solution was incubated with ketoconazole for 15 min prior to the initiation of stability study.

[7] = molecular target: T2, P-gp (MDCK-MDR1 cells); assay: Transepithelial transport across MDCK-MDR1 cells
Experimental: Samples were stored at −80 °C until further analysis.
Samples were extracted with liquid–liquid extraction technique.

[8] = molecular target: T2, P-gp (MDCK-MDR1 cells); assay: Cellular uptake of unlabelled LPV and prodrugs in MDCK-MDR1 cells; assay type: in vitro ADME; design: A. Schinkel and P. Borst (Netherlands Cancer Institute); host or cells: MDCK (MDCK-MDR1), retrovirally transfected; settings: 5 µM, 30 min
Experimental: About 500 µL of DMEM was added to each well and plates were kept in −80 °C overnight for cell lysis.

[9] = molecular target: T1, MRP2 (MDCK-MRP2 cells); assay: Transepithelial transport across MDCK-MRP2 cells
Experimental: Transwell® inserts were coated with type 1 rat tail collagen (100 µg/cm^2). Cells were seeded at a density of 250,000 cells per well. Transport studies were conducted across MDCK-MDR1 and MDCK-MRP2 cells in presence and absence of efflux inhibitors for a period of 3 h at 37 °C. Prior to the initiation of transport study, cell monolayer integrity was evaluated by monitoring transepithelial electric resistance (TEER), with an EVOM (epithelial volt ohmmeter from World Precision Instruments, Sarasota, FL, USA). TEER values of the cell monolayer were approximately 250 Ω*cm^2. Monolayers were washed thoroughly with DBPS (pH7.4) for 15 min at 37 °C, three times. […] At predetermined time points (30, 60, 120 and 180 min), 100 µL sample was withdrawn from the receiving chamber and replaced with fresh DPBS to maintain sink conditions. Samples were stored at −80 °C until further analysis. To determine the effect of efflux inhibitors, cells were treated GF 120918 (MDCK-MDR1) and MK 571 (MDCK-MRP2) prior to initiation of the transport study.
Samples were extracted with liquid–liquid extraction technique. About, 50 μL of verapamil (200 ng) was added as an internal standard to each sample. Analytes were extracted by vortexing with 800 μL water saturated ethyl acetate for 2.5 min. Following centrifugation at 10,000 rpm for 7 min, approximately 600 µL of ethyl acetate layer was collected and evaporated under reduce pressure for 45 min. The residue was reconstituted in 100 μL of acetonitrile (80%) and water (20%) containing 0.1% formic acid. Ten microliters of reconstituted samples were injected in LCMS/MS. Similarly, standard solutions were extracted from DPBS and quantified with LCMS/MS. […]
Transepithelial permeability was determined by plotting cumulative amount of analyte transported against time. […]
Transepithelial permeability was calculated by normalizing the steady-state flux with the donor concentration (Cd) according to Equation (2): Transepithelial permeability = flux/Cd (2)

[10] = system: CYP3A4; assay: Rat liver microsomal stability; settings: Sprague Dawley, rat, pH 7.4
Experimental: as §4, §5, §6, §7

[3H]-LPV uptake in presence of increasing concentrations of test compound ([1]; MDCK-MRP2, DPBS pH 7.4, 37 °C): enhancement of [3H]-LPV uptake
solubility at 24 h [2]: 40 ± 8 µg/mL (≈ 63.6 µM)
[3H]-LPV uptake in presence of increasing concentrations of test compound [3]: elevated significantly
SMILES: Cc1cccc(C)c1OCC(=O)N[C@@H](Cc1ccccc1)[C@@H](O)C[C@H](Cc1ccccc1)NC(=O)[C@H](C(C)C)N1CCCNC1=O [LPV, lopinavir]
Cytotoxicity ([4]; 100 µM): generated cytotoxic effects

SMILES: CSCCC(N)C(=O)OC(CC(Cc1ccccc1)NC(=O)C(C(C)C)N1CCCNC1=O)C(Cc1ccccc1)NC(=O)COc1c(C)cccc1C (stereo not shown) [Met-LPV, methionine-LPV]
Degradation half life ([5]; pH 4, 37 °C): 119 ± 6 h
Degradation half life ([5]; pH 5.5, 37 °C): 55 ± 6 h
Degradation half life ([5]; pH 7.4, 37 °C): 6.2 ± 0.4 h
Solubility, fold higher relative to LPV [2]: ~9 fold
Solubility in DDW [2]: 362 ± 21 µg/mL (≈ 476 µM)
Degradation rate constant in liver microsomal solution [6]: ~3.6 ± 0.4 × 10^−^3 min^−^1
Intrinsic clearance (Vmax/Km) [6]: 0.5 mL/min/mg protein
Km [6]: ~13 µM
Half life in liver microsomes, fold higher compared to LPV [6]: 1.6 to 1.8 fold
A-B permeability, fold higher relative to LPV [7]: ~2.3 fold
Cellular uptake, fold higher relative to LPV [8]: ~2.4 fold
A-B permeability, fold higher relative to LPV [9]: ~1.9 fold

SMILES: Cc1cccc(C)c1OCC(=O)NC(Cc1ccccc1)C(CC(Cc1ccccc1)NC(=O)C(C(C)C)N1CCCNC1=O)OC(=O)C(N)Cc1c[nH]c2ccccc12 (stereo not shown) [Trp-LPV, tryptophan-LPV]
Degradation half life ([5]; pH 4, 37 °C): 123 ± 14 h
Degradation half life ([5]; pH 5.5, 37 °C): 50 ± 9 h
Degradation half life ([5]; pH 7.4, 37 °C): 5.4 ± 0.3 h
Solubility, fold higher relative to LPV [2]: ~7 fold
Solubility in DDW [2]: 274 ± 11 µg/mL (≈ 336 µM)
Km ([6]; read-out: Km (affinity constant), 0.5–40 µM, 5 min, microsomes 0.3 mg/mL, Michaelis-Menten fit): ~13.2 µM
Half life in liver microsomes, fold higher compared to LPV [6]: 1.6 to 1.8 fold
A-B permeability, fold higher relative to LPV [7]: ~1.8 fold
Cellular uptake, fold higher relative to LPV [8]: ~1.8 fold
A-B permeability, fold higher relative to LPV [9]: ~1.7 fold

SMILES: CCC(C)C(N)C(=O)OC(CC(Cc1ccccc1)NC(=O)C(C(C)C)N1CCCNC1=O)C(Cc1ccccc1)NC(=O)COc1c(C)cccc1C (stereo not shown) [Ile-LPV, isoleucine-LPV]
half-life at 50 µM ([5]; pH 4): 101 ± 29 h
half-life at 50 µM ([5]; pH 5.5): 53 ± 10 h
half-life at 50 µM ([5]; pH 7.4): 6.4 ± 0.3 h
Solubility, fold higher relative to LPV [2]: about 15 fold
solubility at 24 h [2]: 625 ± 27 µg/mL (≈ 842 µM)
Half life in liver microsomes, fold higher compared to LPV [6]: 1.6 to 1.8 fold
Km at 5 min [10]: ~14.3 µM
A-B permeability, fold higher relative to LPV [7]: about 3 fold
Cellular uptake, fold higher relative to LPV [8]: about 2.7 fold
A-B permeability, fold higher relative to LPV [9]: about 2.8 fold

SMILES: C[S+](C)[O-] [DMSO]
Reduction in absorbance (positive controls) [4]: 30%

SMILES: CC(C)(C)CC(C)(C)c1ccc(OCCO)cc1 [Triton-X]
Reduction in absorbance (positive controls) [4]: 90%

[3H]-LPV uptake, fold enhancement in presence of inhibitor ([1]; 25 µM inhibitor): 2.5 fold
[3H]-LPV uptake, fold enhancement in presence of inhibitor ([1]; 75 µM inhibitor): 3 fold
SMILES: CN(C)C(=O)CCSC(SCCC(=O)O)c1cccc(/C=C/c2ccc3ccc(Cl)cc3n2)c1 (stereo not shown) [MK 571]

From paper PMC4014701 (Pharmaceuticals, 2014)
